5 compounds from patent publication US20030109418A1, “Methods for identifying compounds for inhibition of neoplastic lesions, and pharmaceutical compositions containing such compounds” (priority 1999, published 2003) can be followed below.

Series [1] relates to HT-29 human colon carcinoma cell line. The experiment in a line: Growth inhibition, SRB assay, HT-29. In kind it is cell-based. Further details: Growth Inhibition: key to the marks not given beside the values.
The subject of series [2] is cGMP PDE purified from human colon HT-29 cultured tumor cells. Kind of series: cGMP PDE inhibition assay. The format is biochemical. The following applies: for PDE Inhibition: qualitative activity profile; for IC50: read-out: IC50 for inhibition of cGMP PDE, HT-29 cell enzyme.
Series [3] deals with SW-480 colon adenocarcinoma cells.
In series [4] the test system is HT-29 colon adenocarcinoma cells. Kind of series: Apoptosis by DNA fragmentation assay in HT-29. As to Apoptosis: key: −: Not active; +: Slightly active; ++: Moderately active; +++: Strongly active; ++++: Highly active. The format is cell-based, human.
Series [5] deals with premalignant lesions in mouse mammary gland organ culture. The experiment in a line: Mammary gland organ culture model. Also: key: −: Not active; +: Slightly active; ++: Moderately active; +++: Strongly active; ++++: Highly active. In kind it is cell-based. The following applies: qualitative activity profile. An excerpt: Test compounds identified by the above methods can be tested for antineoplastic activity by their ability to inhibit the incidence of pre-neoplastic lesions in a mammary gland organ culture system. This mouse mammary gland organ culture technique has been successfully used by other investigators to study the effects of known antineoplastic agents such as certain NSAIDs, retinoids, tamoxifen, selenium, and certain natural products, and is useful for validation of the screening method of the present invention.
For example, female BALB/c mice can be treated with a combination of estradiol and progesterone daily, in order to prime the glands to be responsive to hormones in vitro. The animals are sacrificed, and thoracic mammary glands are excised aseptically and incubated for ten days in growth media supplemented with insulin, prolactin, hydrocortisone, and aldosterone. DMBA (7,12-dimethylbenz(a)anthracene) is added to medium to induce the formation of premalignant lesions. Fully developed glands are then deprived of prolactin, hydrocortisone, and aldosterone, resulting in the regression of the glands but not the pre-malignant lesions.
The test compound is dissolved in DMSO and added to the culture media for the duration of the culture period. At the end of the culture period, the glands are fixed in 10% formalin, stained with alum carmine, and mounted on glass slides. The incidence of forming mammary lesions is the ratio of the glands with mammary lesions to […]. The incidence of mammary lesions in test compound treated glands is compared with that of the untreated glands.
The extent of the area occupied by the mammary lesions can be quantitated by projecting an image of the gland onto a digitation pad. The area covered by the gland is traced on the pad and considered as 100% of the area. The space covered by each of the non-regressed structures is also outlined on the digitization pad and quantitated by the computer.
Mammary gland organ culture experiment were performed as previously described (Mehta and Moon, Cancer Research, 46: 5832-5835, 1986). […] The data support the hypothesis that cyclooxygenase inhibition is not necessary for the anti-neoplastic properties of desired compounds.

Series [6] has as its target T1, purified cyclooxygenase (Type 1, COX-I) from ram seminal vesicles (Ovis aries, UniProt P05979).
T1 construct: using purified cyclooxygenase from ram seminal vesicles as described previously; tissue Cayman Chemical, Ann Arbor, Mich; (named in the general protocol only); host or cells: ram seminal vesicles
T1 sequence (P05979 25-600): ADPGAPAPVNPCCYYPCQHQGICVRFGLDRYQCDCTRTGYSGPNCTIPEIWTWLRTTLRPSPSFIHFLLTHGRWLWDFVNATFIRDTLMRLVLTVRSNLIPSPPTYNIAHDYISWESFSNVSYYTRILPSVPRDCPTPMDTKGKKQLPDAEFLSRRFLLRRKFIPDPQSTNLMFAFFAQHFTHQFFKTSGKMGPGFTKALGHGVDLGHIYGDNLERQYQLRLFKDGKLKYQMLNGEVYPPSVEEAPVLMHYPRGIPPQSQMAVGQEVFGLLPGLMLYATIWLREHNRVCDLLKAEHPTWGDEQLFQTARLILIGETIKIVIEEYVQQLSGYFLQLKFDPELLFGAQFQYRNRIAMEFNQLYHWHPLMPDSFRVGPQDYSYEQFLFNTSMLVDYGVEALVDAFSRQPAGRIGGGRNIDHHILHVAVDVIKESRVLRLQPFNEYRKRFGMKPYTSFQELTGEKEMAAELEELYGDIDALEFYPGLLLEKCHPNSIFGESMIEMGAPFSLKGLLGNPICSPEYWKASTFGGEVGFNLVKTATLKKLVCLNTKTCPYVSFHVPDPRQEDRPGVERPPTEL
The experiment in a line: COX inhibition assay, purified cyclooxygenase. The format is biochemical. The conditions noted are these: for COX Inhibition: qualitative activity profile; for inhibition at 100 µM: read-out: Cyclooxygenase inhibitory activity, % Inhibition at 100 μM.

Series [7] concerns the target novel cGMP-specific PDE peak B from SW480 cells (Homo sapiens). The experiment in a line: cGMP hydrolysis inhibition, novel PDE peak B (Section IA) from SW480. The format is biochemical. The following applies: Section IA Peak B, cGMP hydrolysis, 0.25 μM 3H-cGMP.
The test system of series [8] is SW-480 colon adenocarcinoma cells. Kind of series: Apoptosis fold induction protocol (DNA fragmentation ELISA). The following applies: cell line not given.
Series [9] deals with T2, classic PDE2 (Peak B) from SW480 (Homo sapiens, UniProt O00408).
T2 construct: endogenous in cells; host or cells: SW480 cells, non-FPLC DEAE column with 30% ethylene glycol buffers
T2 sequence (O00408 whole entry): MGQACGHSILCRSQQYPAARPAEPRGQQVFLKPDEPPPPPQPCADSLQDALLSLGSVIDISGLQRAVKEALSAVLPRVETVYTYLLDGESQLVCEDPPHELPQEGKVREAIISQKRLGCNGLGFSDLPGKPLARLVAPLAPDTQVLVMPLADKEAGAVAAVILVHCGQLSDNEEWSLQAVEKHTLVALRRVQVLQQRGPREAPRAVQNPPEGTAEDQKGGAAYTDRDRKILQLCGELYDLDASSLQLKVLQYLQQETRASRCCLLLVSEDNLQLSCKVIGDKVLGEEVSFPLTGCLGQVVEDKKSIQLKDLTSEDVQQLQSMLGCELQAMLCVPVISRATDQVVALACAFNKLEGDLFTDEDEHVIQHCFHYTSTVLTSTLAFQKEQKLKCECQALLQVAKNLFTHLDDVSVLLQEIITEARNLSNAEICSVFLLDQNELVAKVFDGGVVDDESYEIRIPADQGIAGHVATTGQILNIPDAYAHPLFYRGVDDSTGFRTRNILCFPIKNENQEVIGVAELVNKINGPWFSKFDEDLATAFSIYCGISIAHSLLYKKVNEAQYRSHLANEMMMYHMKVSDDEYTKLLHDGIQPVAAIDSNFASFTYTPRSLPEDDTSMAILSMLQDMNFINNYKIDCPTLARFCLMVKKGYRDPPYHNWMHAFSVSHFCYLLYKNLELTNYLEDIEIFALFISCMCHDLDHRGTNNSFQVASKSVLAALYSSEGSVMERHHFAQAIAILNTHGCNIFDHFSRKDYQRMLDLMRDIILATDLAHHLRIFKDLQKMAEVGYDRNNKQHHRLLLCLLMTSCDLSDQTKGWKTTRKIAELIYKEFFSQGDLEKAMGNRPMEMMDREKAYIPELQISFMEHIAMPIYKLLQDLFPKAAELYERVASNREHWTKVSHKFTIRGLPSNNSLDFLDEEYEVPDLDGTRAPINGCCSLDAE
Kind of series: Inhibition of classic PDE2 Peak B isolated with ethylene glycol buffers. In kind it is biochemical. Here is the method:
A second method used to isolate classic PDE2 from SW480 was done using a non-FPLC DEAE column procedure described above (see Section IA) with the modification that the buffers contained 30% ethylene glycol, 10 mM TLCK and 3.6 mM β-mercaptoethanol. The addition of these reagents to the buffers causes a shift in the elution profile (see FIG. 25) from low to high sodium acetate so that peak A moves from 40 to 150 mM, peak B from 75 to 280 mM and peak C from 200 to 500 mM Na acetate (see FIG. 25).

The target of series [10] is T3, PDE peak A (PDE5) from SW480 cells (Homo sapiens, UniProt O76074).
T3 construct: endogenous in cells; host or cells: SW480 colon cancer cells, DEAE-Trisacryl M fraction
The experiment in a line: cGMP hydrolysis inhibition, PDE peak A from SW480. In kind it is biochemical.

In series [11] the test system is PDE4 purified from human colon HT-29 cultured tumor cells. The experiment in a line: PDE4 inhibition assay. In kind it is biochemical. The following applies: HT-29 cell enzyme.
The target in series [12] is T4, cGMP binding sites of the GST-cGB-PDE5 protein (Homo sapiens, UniProt O76074).
T4 construct: made in house; host or cells: E. coli BL21 (DE3)
The experiment in a line: cGMP binding assay with GST-cGB-PDE5 fusion protein. The conditions noted are these: 3H-cGMP 2 μM.

The test system of series [13] is peak B's from SW480, HTB-26, and LnCAP. The experiment in a line: cGMP PDE activity of peak B's isolated by FPLC. The format is biochemical. The conditions noted are these: 100 nM inhibitor. Here is the method: The novel Peak B was also isolated from two other neoplastic cell lines, a breast cancer cell line, HTB-26 and a prostate cancer cell line, LnCAP by a procedure similar to the one above used to isolate it from SW480. The protocol was modified in several respects. To provide even greater reproducibility to allow comparison of different cell lines, a Pharmacia AKTA FPLC was used to control sample loading and elution on an 18 mL DEAE TrisAcryl M column. SW840 was run by this same procedure multiple times to provide a reference of peak B. 200-400 million cells of SW480 were used for the profiles. 70 million cells of LnCAP were used for a profile (see FIGS. 22 and 23), and in a separate experiment 32 million cells of HTB-26 were used for a profile (see FIGS. 20 and 21). After re-suspending cells in homogenization buffer, samples were manually homogenized. FPLC buffer A was 8 mM TRIS-acetate, 5 mM Mg acetate, 0.1 mM EDTA, pH 7.5 and buffer B was 8 mM TRIS-acetate, 5 mM Mg acetate, 0.1 mM EDTA, 1 M Na acetate, pH 7.5. Supernatants were loaded onto the column at 1 mL per minute, followed by a wash with 60 mL buffer A at 1 mL per minute. A gradient was run from 0-15% buffer B in 60 mL, 15-50% buffer B in 60 mL, and 50-100% buffer B in 16 mL. During the gradient 1.5 mL fractions were collected.

Series [14] addresses novel cGMP-specific PDE peak B from SW480 cells (Homo sapiens, UniProt O00408). Kind of series: cGMP hydrolysis inhibition, novel PDE peak B (Section IA) from SW480. In kind it is biochemical.
The test system of another series is Colo 205. Kind of series: Growth inhibition, neutral red assay, Colo 205. In kind it is cell-based, human. The following applies: Homo sapiens, COLO 205; neutral red assay (Schmid et al.). The protocol: (§1) Compound I's activity is not confined to activity against colon cancer cell lines or animal models of colon cancer. It has a broad range of anti-neoplastic effects in various neoplastic cell lines. Various types of human cancer cell lines were propagated under sterile conditions in RPMI 1640 medium with 10% fetal bovine serum, 2 mM L-glutamine and sodium bicarbonate. To determine growth inhibitory effects of Compound I, cells were seeded in 96-well plates at a density of 1000 cells per well. Twenty-four hours after plating, the cells were dosed with various concentrations of the free base of Compound I solubilized in DMSO (final concentration 0.1%). The effect of the drug on tumor cell growth was determined using the neutral red cytotoxicity assay following five days of continuous treatment. Neutral red is a dye that is selectively taken up by viable cells by an ATP-dependent transport mechanism.

For the next series, the system named is PC-3. Kind of series: Growth inhibition, neutral red assay, PC-3. The format is cell-based, human. The conditions noted are these: Homo sapiens, PC-3; neutral red assay (Schmid et al.); read-out: IC50 (μM), Human Prostate Carcinoma PC3. Here is the method:
as §1

Molecules are shown by their SMILES. Read-outs that look alike come from different tables or passages of the source. Where only a bound is given, the exact number is not on record here.

Chain of novel cGMP-specific PDE peak B from SW480 cells (Homo sapiens) (O00408 2-941): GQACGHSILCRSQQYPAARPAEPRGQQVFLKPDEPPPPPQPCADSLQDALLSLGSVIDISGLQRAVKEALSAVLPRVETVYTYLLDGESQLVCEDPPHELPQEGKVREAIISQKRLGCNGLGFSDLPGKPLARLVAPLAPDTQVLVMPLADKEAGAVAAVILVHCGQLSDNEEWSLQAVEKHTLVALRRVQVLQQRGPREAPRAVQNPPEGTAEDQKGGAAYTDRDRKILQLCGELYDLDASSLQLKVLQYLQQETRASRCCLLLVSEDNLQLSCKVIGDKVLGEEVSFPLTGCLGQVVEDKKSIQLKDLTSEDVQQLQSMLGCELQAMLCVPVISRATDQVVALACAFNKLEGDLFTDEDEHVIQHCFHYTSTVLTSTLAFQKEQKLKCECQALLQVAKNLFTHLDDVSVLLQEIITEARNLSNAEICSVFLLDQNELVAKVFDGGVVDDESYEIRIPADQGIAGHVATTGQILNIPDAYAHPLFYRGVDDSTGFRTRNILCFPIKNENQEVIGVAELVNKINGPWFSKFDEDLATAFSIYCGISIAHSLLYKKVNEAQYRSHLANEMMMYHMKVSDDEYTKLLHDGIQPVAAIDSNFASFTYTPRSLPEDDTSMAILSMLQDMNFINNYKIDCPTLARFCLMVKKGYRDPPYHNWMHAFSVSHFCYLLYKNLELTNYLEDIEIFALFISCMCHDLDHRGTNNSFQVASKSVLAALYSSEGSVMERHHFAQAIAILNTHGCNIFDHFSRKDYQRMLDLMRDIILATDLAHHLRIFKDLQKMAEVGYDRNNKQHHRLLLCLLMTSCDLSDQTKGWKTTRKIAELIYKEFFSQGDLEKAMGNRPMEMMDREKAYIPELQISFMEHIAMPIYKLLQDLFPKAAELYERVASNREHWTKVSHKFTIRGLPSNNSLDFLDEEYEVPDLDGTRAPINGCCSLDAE
Chain of novel cGMP-specific PDE peak B from SW480 cells (O00408 2-941): as above

For `CCN(CC)CCSC12CC(=O)OC1(C)/C(=C/c1ccc(S(C)(=O)=O)cc1)c1ccc(F)cc12` (racemic) [A, rac-threo-(E)-1-(N,N′-diethylaminoethanethio)-1-(butan-1′,4′-olido)-[3′,4′: 1,2]-6-fluoro-2-methyl-3-(p-methylsulfonylbenzylidene)-indan], in series [1], the “Growth-inhibitory activity, % Inhibition at 100 μM” value stood at 68%. Besides, the “Growth Inhibition” value in [1] (qualitative activity profile) is given as “+++”. In [2], the “cGMP PDE inhibitory activity, % Inhibition at 10 μM” value is on record as below 25% and the “PDE Inhibition” value was “−”. For the same compound, the “Apoptosis-inducing activity, Fold induction at 100 μM” value in [3] is recorded as below 2.0 fold. Besides, the Apoptosis entry in series [4] (qualitative activity profile) is “++”. In addition, the “Mammary Gland Organ Culture” value in series [5] was “++”. Also, the “Cyclooxygenase inhibitory activity, % Inhibition at 100 μM” value in series [6] (100 μM) is on record as below 25%. For the same compound, in [6], the “COX Inhibition” value is listed as “−”.
Regarding `CCCCCC[C@@H]([C@@H](C)O)n1cnc2c(N)ncnc21` (racemic) [EHNA], the half-inhibitory concentration (IC50) was 3.7 µM in [7]; 3.8 µM in series [9] (2.0 μM cAMP substrate, read-out: IC50, cAMP PDE activity in Peak B); 2.5 µM in series [9] (read-out: IC50, cAMP PDE activity in Peak B with rolipram, 2.0 μM cAMP substrate, addition of 10 μM rolipram); 1.6 µM in [9] (read-out: IC50, cGMP PDE activity in Peak B, 2 μM cGMP substrate); above 100 µM in series [10] (cGMP hydrolysis, 0.25 μM 3H-cGMP). Moreover, the “Apoptosis-inducing activity, Fold induction at 100 μM” value in [8] (100 μM) is below 2.0 fold.
On to `COc1cc(C=C2C(C)=C(CC(=O)O)c3cc(F)ccc32)cc(OC)c1OC` [Compound B, (Z)-5-Fluoro-2-methyl-1-(3,4,5-trimethoxybenzylidene)-3-acetic acid], for which, in [2], the “cGMP PDE inhibitory activity, % Inhibition at 10 μM” value was below 25%; the “PDE Inhibition” value was “+++”; the IC50 came to 18 µM. The fold induction at 100 µM in series [8] (Homo sapiens, SW480, read-out: Apoptosis-inducing activity, Fold induction at 100 μM, 100 μM) is above 2. Also, the IC50 in series [11] worked out at 58 µM. The EC50 in series [4] (Homo sapiens, HT-29, 48 hours) is around 175 µM. Further, in [6], the “COX-I inhibition (FIG. 5)” value is “neither test compound B and E significantly inhibit COX-I”; the “COX Inhibition” value is listed as “−”; the inhibition at 100 µM was below 25%. Also, the “competition with cGMP in binding of GST-cGB-PDE5” value (“competition with cGMP in binding” for short) in series [12] is listed as “do not bind to the cGMP binding sites of PDE5”.
With `O=C(O)C1CCN(c2nc(NCc3ccc4c(c3)OCO4)c3cc(Cl)ccc3n2)CC1` [Compound E4021], the “sensitivity of peak B's cGMP PDE activity” value in [13] is “resistant”. The “Growth-inhibitory activity, % Inhibition at 100 μM” value in [1] was below 50%. The concentration for half-maximal inhibition (IC50) in [1] (HT-29 treated for 6 days, SRB assay, read-out: Growth inhibition (IC50)) was above 100 µM. In series [12], the “competition with cGMP in binding” value is on record as “do not bind to the cGMP binding sites of PDE5”.
As for `COc1cc(/C=C2/C(C)=C(CC(=O)NCc3ccccc3)c3cc(F)ccc32)cc(OC)c1OC` [Compound E, (Z)-5-Fluoro-2-methyl-1-(3,4,5-trimethoxybenzylidene)-3-indenylacetamide, N-benzyl], the “competitive (with cGMP) binding to PDE peak B” value in series [14] was “competitively (with cGMP) binds”. Further, in [2], the “cGMP PDE inhibitory activity, % Inhibition at 10 μM” value is recorded as 75%; the “PDE Inhibition” value was “++++”; the half-maximal inhibitory concentration (IC50) turned out to be 0.08 µM. In the series on Colo 205, this compound yielded a half-inhibitory concentration (IC50) of 1.62 µM. Further, in [11], the concentration for half-maximal inhibition (IC50) is above 25 µM. Moreover, the IC50 with PC-3 is 0.9 µM. Besides, in series [6], the “COX-I inhibition (FIG. 5)” value is “neither test compound B and E significantly inhibit COX-I”; the “COX Inhibition” value is listed as “−”; the inhibition at 100 µM was below 25%. Further, in series [10], the “Ratio (IC50 Peak A/Peak B)” value was 1.0 and the “competitive (with cGMP) binding to PDE 5 (peak A)” value is “does competitively (with cGMP) bind”. Also, the “competition with cGMP in binding” value in [12] is reported as “do not bind to the cGMP binding sites of PDE5”.
